The results in this text go back to PubChem BioAssay (NCI).

Holding throughout (assay): growth of human tumour cells (NCI), 48 h
The subject of experiment [1] is 786-0 renal.
Experiment [2] relates to NCI/ADR-RES ovarian.
For experiment [3], the system named is NCI-H460 lung.
For experiment [4], the system named is DU-145 prostate.
Experiment [5] relates to CCRF-CEM leukemia.
Experiment [6] has as its system COLO 205 colon.
The subject of experiment [7] is RXF 393 renal.
The subject of experiment [8] is CAKI-1 renal.
Experiment [9] relates to SF-295 CNS.
For experiment [10], the system named is U251 CNS.

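Assay format: 96-well plates, 48-hour exposure. Abbreviation: GI50, concentration required for 50% inhibition of growth. TGI: total growth inhibition.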 Bounds are passed on as bounds.

Take `O=S(=O)(/N=c1/scc(-c2ccccc2)n1-c1ccccc1)c1ccc(N2N=C3c4ccccc4CC3C2c2cccs2)cc1` (centres undefined): the GI50 is 64.2 µM in experiment [1]; more than 100 µM in [2]; 95.1 µM in [3]; more than 100 µM in experiment [4]; 50.3 µM in experiment [5]; more than 100 µM in [6]. For the same compound, the GI50 in [7] is 98.2 µM; in [8] it was 73 µM; in experiment [9] it was 54.5 µM; in experiment [10], 31.2 µM. Further, the TGI in experiment [1], in [2], in [3], in experiment [4], in [5] and in [6] was more than 100 µM in each case. Moreover, the TGI in experiment [7], in experiment [8], in [9] and in [10] was more than 100 µM throughout.
For `Cc1ccc(Cl)c(Nc2ccccc2C(=O)O)c1Cl`, the GI50 is 23 µM in experiment [1]; 26.3 µM in experiment [2]; 25.9 µM in experiment [3]; 28.9 µM in experiment [4]; 25.5 µM in experiment [5]; 22.2 µM in [6]. The GI50 in experiment [7] was 19.8 µM; in experiment [8], 34.6 µM; in experiment [9], 25.3 µM; in experiment [10], 26 µM. Besides, the TGI in experiment [1] was 64.3 µM; in [2], 80.9 µM; in experiment [3] it was 69.4 µM; in experiment [4], 71.8 µM; in experiment [5], 90.1 µM; in experiment [6] it was 43 µM. The TGI is 46.8 µM in experiment [7], more than 100 µM in experiment [8], 76 µM in experiment [9] and 82.4 µM in experiment [10].
Consider `CN1C/C=C/CCOc2cccc(c2)-c2ccnc(n2)Nc2cccc(c2)C1`, for which the GI50 in experiment [1] is 0.0317 µM; in experiment [2], 0.0561 µM; in [3] it was 0.0347 µM; in experiment [4] it was 0.0402 µM; in experiment [5], 0.0386 µM; in [6], 0.0204 µM. For the same compound, the GI50 in experiment [7] is 0.0207 µM; in experiment [8], 0.039 µM; in experiment [9] it was 0.0321 µM; in [10] it was 0.0421 µM. Besides, the TGI in experiment [1] was 0.203 µM; in [2] it was 0.963 µM; in experiment [3] it was 0.352 µM; in experiment [4], 1.4 µM; in [6] it was 0.0442 µM; in [7], 0.0447 µM. In addition, the TGI was 0.46 µM in experiment [8], 0.434 µM in [9] and 1.07 µM in experiment [10].
Consider `Cn1c(NCC(O)CN2CCCC2)cc(=O)n(C)c1=O` (centres undefined), for which the GI50 in experiment [1], in [2], in experiment [3], in [4], in experiment [5] and in [6] was more than 100 µM in each case. Also, the GI50 in experiment [7], in experiment [8], in experiment [9] and in experiment [10] was more than 100 µM throughout. Besides, the TGI in [1], in [2], in [3], in [4], in [5] and in experiment [6] was more than 100 µM each time. In addition, the TGI in experiment [7], in [8], in experiment [9] and in [10] was more than 100 µM throughout.
Consider `CCCCCCCCCCCCCCCCC(=O)O.CCCCCCCCCCCCCCCCCC(=O)O.CCCCCCCCCCCCCCCCCC(=O)O.CCCCCCCCCCCCCCCCCC(=O)O.CCCCCCCCCCCCCCCCCC(=O)O.CO[CH-]OC12COC1CC(O)C1(C)C(O)C(OC(C)O)C3=C(C)C(OC(=O)C(O)C([NH-])c4ccccc4)CC(O)(C(OC(=O)c4ccccc4)C21)C3(C)C.[Cu+].[Zn].[Zn].[Zn].[Zn].[Zn]` (centres undefined), for which the GI50 is 0.0595 µM in experiment [1]; 2.31 µM in experiment [2]; 0.00441 µM in experiment [3]; 0.00871 µM in [4]; 0.0095 µM in [5]; 0.00844 µM in experiment [6]. Moreover, the GI50 was 0.0513 µM in experiment [8], 0.0102 µM in experiment [9] and 0.00851 µM in [10]. Besides, the TGI in experiment [1] is more than 10.9 µM; in experiment [2], 24.6 µM; in experiment [3] it was 3.66 µM; in [4] it was 1.63 µM; in experiment [5] it was more than 17.7 µM; in [6] it was more than 25 µM. Moreover, the TGI in experiment [7] is 0.21 µM; in experiment [8], more than 25 µM; in [9] it was 2.9 µM; in experiment [10] it was 4.09 µM.
Regarding `COc1cc(C(=O)Nc2cc(OC)c3ccn(C)c3c2)cc2c1C[C@]1(C)CC[C@@H](O)C(C)(C)[C@H]1O2`, the GI50 is 0.0878 µM in experiment [1]; 2.34 µM in experiment [2]; 0.586 µM in experiment [3]; 1.22 µM in experiment [4]; 0.0927 µM in experiment [5]; 1.4 µM in experiment [6]. The GI50 in experiment [7] was 0.0317 µM; in [9], 0.0302 µM; in experiment [10], 0.0978 µM. Besides, the TGI in experiment [1] is 5.22 µM; in [2], 14.7 µM; in experiment [3], more than 100 µM; in experiment [4] it was 29 µM; in experiment [5], more than 100 µM; in experiment [6] it was 6.41 µM. The results for the TGI in experiment [7], in experiment [9] and in [10] were 0.485 µM, 0.143 µM and 15.3 µM, respectively.
As to `CC(=O)Oc1ccc(/C(=C(\C)c2ccc(Cl)cc2)c2ccc(OCCN3CCCCC3)cc2)cc1`, the GI50 was 1.59 µM in experiment [1]; 1.97 µM in experiment [2]; 1.91 µM in experiment [3]; 1.92 µM in experiment [4]; 2.2 µM in [5]; 1.79 µM in experiment [6]. In addition, the figures for the GI50 in experiment [7], in [9] and in experiment [10] were 1.46 µM, 1.72 µM and 1.66 µM, respectively. Further, the TGI in experiment [1] is 3.16 µM; in experiment [2], 5.44 µM; in experiment [3], 3.66 µM; in experiment [4], 3.83 µM; in [5], 6.67 µM; in experiment [6], 3.5 µM. For the same compound, the TGI in experiment [7] came out at 3 µM; in experiment [9] it was 3.27 µM; in experiment [10], 3.27 µM.
